Assay results taken from US12492182B2, “Hydroxytriazine compounds and pharmaceutical use thereof” (Japan Tobacco Inc., priority 2015, dated 2025).
Read-outs that look alike come from different tables or passages of the source.

Tests used:
[1] = target: T1, human mPGES-1 (Homo sapiens, UniProt O14684); assay: Evaluation of human mPGES-1 enzyme inhibitory activity (HTRF measurement of PGE2); format: biochemical; conditions: IC50 value; microsome fraction of CHO-S cells expressing human mPGES-1, PGH2 substrate, PGE2 by HTRF; read-out: humans mPGES-1 enzyme inhibitory activity
T1 construct: made in house; host or cells: Chinese hamster ovary-derived cells (FreeStyle CHO-S), transient transfection of pcDNA3.1(+)/human mPGES-1; microsome fraction
T1 sequence (O14684 1-152): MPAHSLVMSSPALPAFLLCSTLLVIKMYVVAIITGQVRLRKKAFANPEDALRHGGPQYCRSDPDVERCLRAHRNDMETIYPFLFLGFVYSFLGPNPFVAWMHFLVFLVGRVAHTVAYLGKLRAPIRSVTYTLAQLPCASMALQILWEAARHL
Method: Experimental Example 1: Evaluation of Human mPGES-1 Enzyme Inhibitory Activity
The human mPGES-1 enzyme inhibitory activity of a test article was evaluated according to the report of Xu et al. (XU, D et al. MF63 [2-(6-chloro-1H-phenanthro[9,10-d]imidazol-2-yl)-isophthalonitrile], a selective microsomal prostaglandin E synthase-1 inhibitor relieves pyresis and pain in preclinical models of inflammation. J Pharmacol Exp Ther. September 2008, Vol. 326, No. 3, pages 754-763). The amount of PGE2 produced by human mPGES-1 in the presence of a test article was measured by the HTRF (homogeneous time resolved fluorescence) method, and the human mPGES-1 enzyme inhibitory activity of the test article was determined.
1) Preparation of Human mPGES-1 Expressing Cell Microsome Fraction
A DNA fragment containing human mPGES-1, which is added with a BamHI recognition cleavage sequence just before the translation initiation codon and an EcoRI recognition cleavage sequence just after the translation termination codon, was amplified by the PCR (Polymerase Chain Reaction) method using a human mPGES-1 expression plasmid DNA (pME-18S/iPGES-1) prepared in-house as a template. The purified DNA fragment was digested with BamHI and EcoRI, and ligated to pcDNA3.1(+) (Invitrogen, model number V790-20), similarly_digested with BamHI and EcoRI, by using a DNA Ligation kit ver. 2.1 (Takara Bio, model number 6022). The human mPGES-1 expression plasmid DNA was isolated from Escherichia coli DH5a (TOYOBO, model number DNA-903) transformed with the obtained ligation product. The base sequence of human mPGES-1 cloned to a vector was determined by the Dye Terminator method using BigDye Terminator v3.1 Cycle Sequencing Kit (Applied Biosystems, #4337455). The determined sequence was identical with the sequence of the protein translational region of human mPGES-1 (Accession number NM 004878) registered in the NCBI Reference Database.
Human mPGES-1 expression plasmid DNA was transfected into Chinese hamster ovary-derived cells (FreeStyle CHO-S Cell, Invitrogen, #R^800-07) by using a transgene reagent (FreeStyle MAX Reagent (Invitrogen, #16447-100)), and cultured with shaking (8% CO2, 37° C.) in a medium containing 8 mmol/L L-glutamine (GIBCO FreeStyle CHO Expression Medium, Invitrogen, #12651-022) for 48 hr.
The CHO-S cells were suspended in Homogenate Buffer (100 mmol/L potassium phosphate (pH 7.4), 250 mmol/L Sucrose, 100 mmol/L EDTA, complete EDTA free (Roche, #1873580)). Using an ultrasonic disruptor UD-201 (Tomy Seiko), the suspended cells were disrupted at output:3, duty cycle:50 for 30 seconds. The precipitate was removed by centrifugation (1,000×g, 5 min, 4° C.), and the supernatant was centrifuged (5,000×g, 10 min, 4° C.). The supernatant was further centrifuged (105,000×g, 60 min, 4° C.). The obtained precipitate was suspended in Resuspension Buffer (100 mmol/L potassium phosphate (pH 7.4), 250 mmol/L sucrose, 100 mmol/L EDTA, 10% glycerol) to give a microsome fraction.
The protein concentration of the microsome fraction was measured by the Bradford method (Protein Assay Kit, Bio-Rad). The microsome fraction was rapidly frozen in liquid nitrogen and preserved at −80° C. Human mPGES-1 in the microsome fraction was detected by Western Blot using rabbit anti-mPGES-1 polyclonal antibody (ThermoFisher Scientific, #PA1-10264).
2) Evaluation of Human mPGES-1 Enzyme Inhibitory Activity
A test article solution diluted with 0.1 mol/L potassium phosphate, pH 7.4 (hereinafter to be referred to as KPB) or DMSO (Nacalai Tesque, #13407-45) was added at 5 μL/well to 96 well V-bottom plate (Corning, #3363). The final DMSO concentration during the reaction was set to 2%(v/v). Furthermore, a microsome fraction of CHO-S cells expressing human mPGES-1, which was diluted with reduced GSH (12.5 mmol/L KPB solution, SIGMA, #G6529-25G) such that the protein concentration was 5 μg/mL, was added at 20 μL/well. […]

[2] = system: A549 cell; assay: Evaluation of PGE2 production inhibitory action using A549 cell (IL-1β stimulated); format: cell-based, human
Method: Experimental Example 2: Evaluation of PGE2 Production Inhibitory Action Using A549 Cell
A549 cell (Japan Health Sciences Foundation Research Resources Bank), which is cell line derived from humans lung cancer, was suspended in assay medium (Ham's F-12K (Wako, #080-08565) containing 2% FBS (Hyclone Laboratories, #SH30910.03), 100 units/mL penicillin and 100 μg/mL streptomycin (Invitrogen, #15140-122)), the suspension was added at 2.5×10^4 cells/100 μL/well to 96 well flat-bottom plate (Corning, #353072), and the plate was left standing for 20 hr in a CO2 incubator set at 37° C. The test article was serially diluted with DMSO (Nacalai Tesque, #13407-45), and then 20-fold diluted with the assay medium to prepare a test article solution having a ten-fold concentration of the final concentration. The final DMSO concentration during the reaction was set to 0.5% (v/v). The medium was removed from the plate in which the cell was added, new assay medium was added at 160 μL/well to the plate, and the plate was left standing for 10 min in a CO2 incubator. Then, the test article solution was added at 20 μL/well to the plate, and the plate was left standing for 30 min in a CO2 incubator. Next, recombinant humans IL-1β (R&D Systems, #201-LB) as a stimulant to enhance PGE2 production due to increase of mPGES-1 mRNA expression was added at 20 μL/well (the final concentration was 1 ng/mL) to the plate, and the plate was left standing for 18 hr in a CO2 incubator. The supernatant was collected at 180 μL/well, and the PGE2 concentration was measured using Prostaglandin E2 assay (CISbio Bioassays, #62P2APEC) according to the manual. As the reference standard for analytical curve, PGE2 (Cayman Chemical, #14010) was used. Using EnVision 2104 (Perkin Elmer), the time-resolved fluorescence at 620 nm and 665 nm relative to the excitation light at 337 nm was measured. PGE2 concentration was extrapolated from the PGE2 analytical curve. Average of the PGE2 concentrations of the respectively-treated wells was used as the data.
The PGE2 production inhibitory activity (%) of the test article was calculated according to the following Formula 3. PGE2 production inhibitory activity(%)=(PGE2A−PGE2X)/(PGE2A−PGE2B)×100 [Formula 3] • PGE2A: PGE2 concentration of vehicle-treated well • PGE2B: PGE2 concentration of blank well (no addition of recombinant humans IL-1B) • PGE2X: PGE2 concentration of test article-treated well

[3] = Homo sapiens, A549, A549 cell, recombinant human IL-1β stimulation, read-out: cell PGE2 production inhibitory activity (IC50 value)
[4] = Homo sapiens, A549, 18 h, IC50 value, A549 cell, recombinant IL-1β 1 ng/mL, 18 hr, PGE2 in supernatant, read-out: cell PGE2 production inhibitory activity

Structure (SMILES)	IC50 [1] [nM]	IC50 [2, 3] [nM]	IC50 [2, 4] [nM]	IC50 ([2]; A549 cell, recombinant human IL-1β stimulation, read-out: cell PGE2 production inhibitory activity (IC50 value)) [nM]
CC1(c2cccc(-c3nc(O)nc(-c4cc(CNC(=O)C5(C(F)F)CCCCCC5)ccc4Cl)n3)c2)CC1 [Example 122]	1.8	19		
CCOC(C)(C)C(=O)NCc1ccc(Cl)c(-c2nc(O)nc(-c3cccc(C(C)C)c3)n2)c1 [Example 17]	67		1300	
CCCc1cc(-c2nc(O)nc(-c3cc(CNC(=O)C4(C(F)(F)F)CCCCC4)ccc3Cl)n2)cnc1OCC [Example 72]	5.3	5.9		
CC(C)c1cc(-c2nc(O)nc(-c3cc(CNC(=O)C4(C(F)F)CCCCC4)ccc3Cl)n2)ccc1Cl [Example 108]	2.4	2.4		
CCC[C@H](C)Oc1ccc(-c2nc(O)nc(-c3cc(CNC(=O)C4(C(F)F)CCCC4)ccc3Cl)n2)cn1 [Example 110]	3.7	2.7		
CCC[C@H](C)Oc1ccc(-c2nc(O)nc(-c3cc(CNC(=O)C(CC)(CC)C(F)F)ccc3Cl)n2)cn1 [Example 130]	3.8	1.2		
CCC(CC)(OC)C(=O)NCc1ccc(Cl)c(-c2nc(O)nc(-c3cccc(C(C)C)c3)n2)c1 [Example 75]	1.8	32		
COc1ccc(-c2nc(O)nc(-c3cc(CNC(=O)C4(OC)CCCC4)ccc3Cl)n2)cn1 [Example 34]	1.6		1000	
CC(C)(C)c1cccc(-c2nc(O)nc(-c3cc(CNC(=O)C4(CF)CCCC4)ccc3Cl)n2)c1 [Example 93]	1.3	30		
CCC[C@@H](C)Oc1ccc(-c2nc(O)nc(-c3cc(CNC(=O)C(CC)(OC)C(F)(F)F)ccc3Cl)n2)cn1 (single isomer, unassigned) [Example 143]	3.9			1.6
CCC[C@H](C)Oc1ccc(-c2nc(O)nc(-c3cc(CNC(=O)C4(CF)CCCCC4)ccc3Cl)n2)cn1 [Example 106]	3.6	5		
COc1ccc(-c2nc(O)nc(-c3cc(CNC(=O)C(C)(C)C(F)(F)F)ccc3Cl)n2)cc1C(C)(C)C [Example 36]	5.8		10	
CCCOc1ccc(-c2nc(O)nc(-c3cc(CNC(=O)C4(C(F)(F)F)CCCCC4)ccc3Cl)n2)cn1 [Example 46]	3.2		4.1	
CC(C)c1cc(-c2nc(O)nc(-c3cc(CNC(=O)C(C)(C(F)(F)F)C(F)(F)F)ccc3Cl)n2)ccc1Cl [Example 88]	19	1.6		
CCC[C@H](C)Oc1ccc(-c2nc(O)nc(-c3cc(CNC(=O)C(CC)(OC)C(F)(F)F)ccc3Cl)n2)cn1 (single isomer, unassigned) [Example 144]	3.9	1.6		
CC(C)c1cccc(-c2nc(O)nc(-c3cc(CNC(=O)C(C)(C(F)(F)F)C(F)(F)F)ccc3Cl)n2)c1 [Example 90]	2.1	3.9		

The next lines start with the values.

IC50 [1] [nM]	IC50 [2, 3] [nM]	IC50 [2, 4] [nM]	IC50 ([2]; A549 cell, recombinant human IL-1β stimulation, read-out: cell PGE2 production inhibitory activity (IC50 value)) [nM]	Structure (SMILES)
0.4	17			CCC(CC)(C(=O)NCc1ccc(Cl)c(-c2nc(O)nc(-c3cccc(C4(C)CC4)c3)n2)c1)C(F)F [Example 118]
0.5	90			CC(C)c1cccc(-c2nc(O)nc(-c3cc(CNC(=O)C4(CF)CCCC4)ccc3Cl)n2)c1 [Example 92]
1.3		23		CC(C)c1cccc(-c2nc(O)nc(-c3cc(CNC(=O)C4(F)CCCC4)ccc3Cl)n2)c1 [Example 41]
1.3	6.6			CCC(CC)(CF)C(=O)NCc1ccc(Cl)c(-c2nc(O)nc(-c3ccc(Cl)c(C(C)C)c3)n2)c1 [Example 115]
1.2		4.7		CCCCOc1ccc(-c2nc(O)nc(-c3cc(CNC(=O)C(C)(C)C(F)(F)F)ccc3Cl)n2)cn1 [Example 14]
0.5		170		CC(C)(C(=O)NCc1ccc(Cl)c(-c2nc(O)nc(-c3ccc(OC4CC4)nc3)n2)c1)C(F)(F)F [Example 50]
1.2	10			CCC(OC)(C(=O)NCc1ccc(Cl)c(-c2nc(O)nc(-c3cccc(C4(C)CC4)c3)n2)c1)C(F)(F)F (centres unmarked) [Example 136]
0.4		3.7		Cc1ccc(-c2nc(O)nc(-c3cc(CNC(=O)C(C)(C)C(F)(F)F)ccc3Cl)n2)cc1C(C)C [Example 53]
0.8	44			CC(C)c1cccc(-c2nc(O)nc(-c3cc(CNC(=O)C(C)(C)C(F)F)ccc3Cl)n2)c1 [Example 77]
1.2	43			CC(C)c1cccc(-c2nc(O)nc(-c3cc(CNC(=O)C4(CF)CCCCC4)ccc3Cl)n2)c1 [Example 98]
0.5		120		CCC(C)(CC)C(=O)NCc1ccc(Cl)c(-c2nc(O)nc(-c3cccc(C(C)C)c3)n2)c1 [Example 15]
0.8		69		COc1ccc(-c2nc(O)nc(-c3cc(CNC(=O)C4(C(F)(F)F)CCCC4)ccc3Cl)n2)cn1 [Example 29]
